# Article PMC10223120, “α-Viniferin-Induced Apoptosis through Downregulation of SIRT1 in Non-Small Cell Lung Cancer Cells” (Pharmaceuticals, 2023)
# Legend:
# [1] = system: human SIRT1 enzyme; design: method as in doi:10.1177/1934578X1801301130; details: cited from earlier work
# [2] = system: NCI-H460 cells; assay: MTT cell viability assay, NCI-H460 cells; assay type: cell-based, human
# Procedure: (§1) The Bioresource Collection and Research Center (BCRC) in Hsinchu, Taiwan provided the NCI-H460 and A549 cell lines, which were cultured in DMEM supplemented with 10% FBS, 100 U/mL penicillin A, and 100 U/mL streptomycin. These cells were kept at a temperature of 37 °C with 5% CO2 and a humidified air environment.
# (§2) To investigate the impact of α-viniferin (0–50 μM), ε-viniferin (0–50 μM), and signal transduction inhibitors (20 μM PD98059, 10 μM SB431542, 20 μM SP600125, 20 μΜ LY294002, 10 μM BIRB796, or 10 μM GO6976) on the viability of NCI-H460 or A549 cells were investigated using MTT assay. NCI-H460 or A549 cells were treated with various concentrations of α-viniferin, ε-viniferin, and signal transduction inhibitors and were incubated for 24, 48, or 72 h. Following incubation, 5 mg/mL MTT solution in phosphate-buffered saline (PBS) was added to each well, and the plate was further incubated for 4 h at 37 °C. Following this, the medium was aspirated, and DMSO was utilized to dissolve the MTT-formazan crystals. Finally, the solution was analyzed using a microplate reader at a wavelength of 540 nm.
# [3] = system: NCI-H460 cells; assay: Annexin V/7-AAD double staining, flow cytometry; assay type: cell-based, human; details: 24 h, control 5.3%
# Procedure: To investigate the molecular mechanism by which α-viniferin affects NCI-H460 cells, the presence of apoptotic and necrotic cells was analyzed using double staining with annexin V and 7-aminoactinomycin D (7-AAD). Annexin V, which binds to phosphatidylserine (PS), is used as a marker of early-stage apoptosis. The 7-ADD is a fluorescent DNA dye that is excluded from viable cells with intact membranes but can penetrate the plasma membrane of apoptotic and necrotic cells. Double staining with both annexin V and 7-AAD can differentiate between cells in different stages of apoptosis and necrosis. Specifically, cells that are annexin V+/7-AAD- are in early apoptosis, cells that are annexin V+/7-AAD+ are in late apoptosis, and cells that are annexin V-/7-AAD+ are in necrosis. Cells that are annexin V-/7-AAD- are considered viable. […] These findings implied dose-dependent induction of apoptosis by α-viniferin in NCI-H460 cells. The mechanism behind α-viniferin-induced apoptosis in NCI-H460 cells merits further investigation.
# The annexin V and 7-ADD double staining was utilized to detect apoptotic and necrotic cells. NCI-H460 cells were treated with α-viniferin at various concentrations (0, 5, 10, 20, and 30 μM) for 24 h. Following treatment, the cells were collected by trypsinization and suspended in a warm medium. The cells in a suspension were centrifuged at 2000× g for 5 min, and the resulting supernatant was removed, leaving the cell pellets. The pellets were subsequently resuspended in 200 µL of PBS and were fixed by adding […]. Next, the cell pellets that had been fixed were resuspended in 500 µL of 1 × annexin V-FITC Binding Buffer, to which 5 µL each of annexin V-FITC and 7-AAD staining reagents were added. The samples were then vortexed gently and incubated for 15 min at 4 °C in the dark. Finally, the samples were analyzed using a BD FACScan™ flow cytometer.
# [4] = system: NCI-H460 cells; assay: Western blot of apoptosis-related proteins; assay type: cell-based, human; details: 10, 15, 20, 30 μM, 24 h
# Procedure: The western blot analysis was conducted to check the expression levels of cleaved caspase-3, cleaved PARP, SIRT1, vimentin, and AKT phosphorylation in NCI-H460 cells after treatment with α-viniferin at various concentrations (0, 10, 15, 20, and 30 μM) for 24 h. After treatment, the cells in a 10-cm plate were lysed in an ice-cold lysis buffer, containing protease and […] inhibitors. The Bio-Rad protein assay kit (Bio-Rad Laboratories, Hercules, CA, USA) was utilized to measure the protein concentration in each lysate. Equal amounts of protein (50 μg) were loaded onto each lane, separated using sodium dodecyl sulfate-polyacrylamide gel electrophoresis (SDS-PAGE), and subsequently transferred onto polyvinylidene fluoride (PVDF) membranes. First, the membranes were blocked using 1% BSA in PBS at room temperature for 1 h. Then, the membranes incubated with primary antibodies against full length caspase-3, activated caspase-3, full length PARP, cleaved PARP, SIRT1, vimentin, and AKT phosphorylation, and followed by secondary antibodies conjugated with horseradish peroxidase were added to the samples. Finally, the immunoreactive bands were visualized using an enhanced chemiluminescence (ECL) detection system.
# [5] = system: NCI-H460 cells; assay: Immunofluorescence assay of AIF localization (Hoechst 33258 nuclear stain); assay type: cell-based, human; details: 5, 10, 15, 20, 30 μM, 24 h
# Procedure: The immunofluorescence assay was conducted following the method described in a previous study to detect the localization of AIF in NCI-H460 cells after treatment with α-viniferin at various concentrations (0, 5, 10, 15, 20, and 30 μM) for 24 h. After treatment, the cells in a 6-well plate were washed with PBS, and fixed immediately with 4% formaldehyde at room temperature for 15 min. Then, NCI-H460 cells were treated with 0.1% Triton X-100 in PBS at room temperature for 15 min to achieve permeabilization. After that, NCI-H460 cells were incubated with anti-AIF primary antibodies at 4 °C for 24 h, followed by incubation with secondary antibodies conjugated with fluorescein isothiocyanate at 37 °C for 1 h. To stain the cell nuclei, NCI-H460 cells were treated with a solution containing […] Hoechst 33,258 for 30 min. After washing the cells with PBS, they were mounted onto a glass slide for visualization. Confocal laser scanning microscopy was employed to capture the images. The mean fluorescence intensity, which represented the protein level, was analyzed using the Image J software.
# [6] = system: NCI-H460-cell xenografts; assay: In vivo xenograft tumor growth experiment; design: species or system BALB/c nude mice
# Procedure: (§3) The male BALB/c nude mice utilized in this investigation were obtained from the National Laboratory Animal Breeding and Research Center situated in Taiwan. All animal experimentation procedures were conducted in accordance with National Tsinghua University’s Institutional Animal Care and Use Committee Guidelines (Protocol No. 107049). For this study, the hind leg of five-week-old nude mice was subcutaneously implanted with 1 × 10^6 NCI-H460 cells. Treatment was initiated only after the tumors had grown to a volume of 100–200 mm^3. Subsequently, the nude mice with NCI-H460-cell xenografts were randomly allocated into two groups: experimental and control, each comprising five mice. The experimental group was administered 5 mg/kg α-viniferin through intraperitoneal injection five times every week, while the control group was administered PBS. After four weeks, the mice were euthanized. Tumor weight, vimentin expression, histopathological changes and apoptosis in the tumor section were evaluated using immunohistochemistry (IHC) staining, hematoxylin and eosin staining, and TUNEL assay. The quantification of AST, CPK, LDH, and creatinine levels was carried out following previously described procedures. Briefly, AST, LDH, CPK, and creatinine levels were quantified using commercial kits (Wako Pure Chemical Industries, Osaka, Japan).
# [7] = Serum AST, CPK, LDH and creatinine in xenograft-bearing mice; assay type: in vivo, BALB/c nude mice; details: 5 mg/kg i.p., five times every week, four weeks
# Procedure: as §3
# [8] = system: osteosarcoma cells (HOS); design: method as in PMID 34728247; details: cited from earlier work
# [9] = system: osteosarcoma cells (U2OS); design: method as in PMID 34728247; details: cited from earlier work
# [10] = system: A549; design: method as in PMID 34728247; details: A549 cells; cited from earlier work
# [11] = system: A549 lung cancer cells; design: method as in PMID 34728247; details: cited from earlier work
# [12] = system: NSCLC cells; design: method as in PMID 35684095; details: cited from earlier work
# [13] = system: A549 cells; assay: MTT cell viability assay, A549 cells; assay type: cell-based, human; details: low doses (20 μM)
# Procedure: as §1, §2
# [14] = 5 mg/kg i.p., five times every week, four weeks, compared with control
compound,measurement,setting,value
Oc1ccc([C@H]2Oc3cc(O)cc(/C=C/c4ccc5c(c4)[C@@H](c4cc(O)cc6c4[C@H](c4cc(O)cc(O)c4)[C@@H](c4ccc(O)cc4)O6)[C@H](c4ccc(O)cc4)O5)c3[C@@H]2c2cc(O)cc(O)c2)cc1 [(−)-vitisin B],activity of the human SIRT1 enzyme,[1],inhibit the activity
"O=c1cc(N2CCOCC2)oc2c(-c3ccccc3)cccc12 [LY294002, reference compound]",cell viability,"[2]; inhibitor 20 μM, 24 h",decreased cell viability
"COc1cccc(-c2cc(=O)c3ccccc3o2)c1N [PD98059, reference compound]",cell viability,"[2]; inhibitor 20 μM, 24 h",decreased cell viability
Oc1ccc([C@H]2c3c(O)cc(O)cc3[C@H]3c4c(cc(O)cc4[C@@H]2c2cc(/C=C/c4cc(O)cc5c4[C@H](c4cc(O)cc(O)c4)[C@@H](c4ccc(O)cc4)O5)ccc2O)O[C@@H]3c2ccc(O)cc2)cc1 [vitisin A],activity of the human SIRT1 enzyme,[1],inhibit the activity
"Oc1ccc([C@H]2Oc3cc(O)cc4c3[C@@H]2c2cc(O)cc3c2[C@@H](c2cc(O)cc5c2[C@@H]4[C@H](c2ccc(O)cc2)O5)[C@H](c2ccc(O)cc2)O3)cc1 [α-viniferin, α-Viniferin]",cell viability,"[2]; low doses 10–20 μM, 24, 48, 72 h",inhibited cell viability in a dose- and time-dependent manner
same,apoptotic cells (early + late apoptotic cells),[3]; 5 μM,7.0%
same,apoptotic cells (early + late apoptotic cells),[3]; 10 μM,8.3%
same,apoptotic cells (early + late apoptotic cells),[3]; 20 μM,22.3%
same,apoptotic cells (early + late apoptotic cells),[3]; 30 μM,35.0%
same,protein expression level of SIRT1,[4],decreased the protein expression levels
same,protein expression level of vimentin,[4],decreased the protein expression levels
same,protein expression of activated caspase-3,[4],increased the protein expression
same,protein expression of cleaved PARP,[4],increased the protein expression
same,AKT phosphorylation,[4]; normalized to AKT,decreased the protein expression levels
same,AIF translocation to the nucleus,[5],translocated to the nucleus
same,DNA fragmentation,[5],caused DNA fragmentation
same,apoptotic cells in tumor tissue (TUNEL staining),"[6]; 5 mg/kg i.p., five times every week, four weeks",increased numbers of apoptotic cells
same,tumor volume,[6]; [14],more significant reduction
same,tumor weight,[6]; [14],more significant reduction
same,vimentin expression in tumor (IHC),[6]; [14],reduced
same,tumor growth,"[6]; 5 mg/kg, i.p., five days/week",suppression of tumor growth
same,"liver or kidney function (serum AST, CPK, LDH, creatinine)",[7],no negative impact
same,apoptosis,[8],induce apoptosis
same,apoptosis,[9],induce apoptosis
same,apoptosis,[10],induce apoptosis
same,epithelial mesenchymal transition (EMT),[11],inhibit epithelial mesenchymal transition
same,TGF-induced vimentin expression,[12],inhibit TGF-induced vimentin expression
Oc1ccc(/C=C/c2cc(O)cc3c2[C@@H](c2cc(O)cc(O)c2)[C@H](c2ccc(O)cc2)O3)cc1 [ε-viniferin],anti-proliferative effect,[2]; 20 μM,did not exhibit potent anti-proliferative effects
same,anti-proliferative effect,[2]; higher concentrations (above 20 μM),did demonstrate such effects
same,cell viability,[13],inhibited A549 cell viability
(+)-hopeaphenol,activity of the human SIRT1 enzyme,[1],inhibit the activity
